Experimental data as given in US12054497B2, “Substituted heterocyclic fused cyclic compound, preparation method therefor and pharmaceutical use thereof” (GENFLEET THERAPEUTICS (SHANGHAI) INC., priority 2019, dated 2024).
Read-outs that look alike come from different tables or passages of the source.

Columns and labels:
[1] = system: subcutaneous xenograft tumor model of MIA PaCa-2; test: In vivo pharmacodynamic experiment, tumor growth inhibition (Test Example 5); set-up: species or system BALB/c nude mice; settings: p.o., QD; for TGI: day 14
Experimental: Experimental objective: to evaluate the in vivo pharmaceutical effects of tested compounds on the subcutaneous xenograft tumor model of MIA PaCa-2.
Experimental operation: 6 to 8 weeks old female BALB/c nude mice each having the body weight of 18-20 g were chosen. MIA PaCa-2 cells were cultured in DMEM containing 10% FBS, 2.5% HS and 1% penicillin-streptomycin at 37° C. in an incubator with 5% CO2. Cells were collected. The MIA PaCa-2 cells were subcutaneously inoculated to the animals at their backs on the right, 2.0×10^6 cells (0.1 mL) for each animal. When tumor grew to 190-311 mm^3, mice with tumor having a suitable size were chosen and treated in groups, with administration dosages shown in Table 5 below. The animals were weighed on an electronic balance each day. The tumor volume was investigated by using a vernier caliper twice a week. The tumor volume was calculated by the following equation: V=0.5 a×b^2, a and b representing the long diameter and the short diameter of the tumor, respectively. The tumor volume was used to calculate a tumor growth inhibition rate (TGI), and the TGI shown in the form of a percentage was used to indicate the antineoplastic activity of a compound. The TGI was calculated by the following equation: TGI (%)=[1−avTi−0/avCi−0)]×100, with avTi−0 representing the average tumor volume of the group administrated with the compound on a specific day minus the average tumor volume of this group on the day of grouping, and avCi−0 representing the average tumor volume of the solvent control group on a specific day minus the average tumor volume of the solvent control group on the day of grouping. The tumor volume was shown in the form of an average value±standard error of mean (SEM).

[2] = Pharmacokinetic evaluation on mice, intravenous administration (Test Example 6); format: in vivo; settings: male CD-1 mice, IV 2 mg/kg
Experimental: (§1) Experimental objective: male CD-1 mice were chosen as tested animals, and the LC-MS-MS method was employed to measure the concentrations of a tested compound in blood plasma of a mouse intravenously and intragastrically administrated with the tested compound at different times. The pharmacokinetic behaviors of tested compounds in mice were studied, and the pharmacokinetic characteristics thereof were evaluated.
(§2) Experimental scheme: experimental animals: 18 healthy adult male CD-1 mice (6 to 8 weeks old, and body weight about 30 g) were divided into 6 groups according to the principle of similar body weights: 3 mice in each of IV groups (3 groups), and 3 mice in each of PO groups (3 groups). The animals were purchased from Shanghai Jihui Laboratory Animal Care Co., Ltd.
(§3) Formulation: IV group: taking 10 mL of sample solution for example, 4 mg of sample was weighed, orderly added with 0.5 mL of DMSO and […], then added with […] of HP-p-CD, finally added with water to a constant volume of 10 mL, and stirred and subjected to ultrasonic irradiation, thereby obtaining a 0.4 mg/mL clear solution. PO group: an appropriate amount of sample was weighed, orderly added with appropriate amounts of Labrasol and water in a volume ratio of 10:40, and stirred and subjected to ultrasonic irradiation, thereby obtaining a 1.5 mg/mL uniform solution.
(§4) Administration: after being deprived of food for one night, the IV groups were intravenously administrated with the formulated solutions, respectively, with an injection volume of 5 mL/kg and a dosage of 2 mg/kg. The PO groups were intragastrically administrated with the formulated solutions, respectively, with an injection volume of […] and a dosage of 15 mg/kg.
(§5) Experimental operations: after the intravenous injection groups and the intragastric administration groups of the male CD-1 mice were administrated with the tested compounds, 110 ul of blood was sampled at the following time points: 0.0833, 0.25, 0.5, 1, 2, 4, 6, 8, and 24 hours. The sampled blood was placed into an anticoagulant tube which was added with K2EDTA in advance and preserved in dry ice. The tube was centrifuged for 15 minutes to separate blood plasma, and the separated blood plasma was preserved at −70° C. The animals were allowed to be fed after 4 hours of administration. The LC-MS-MS method was employed to measure the concentration of the tested compounds in the blood plasma after the intravenous and intragastric administration to the mice. The linear range of the method was 1-3000 ng/ml. The blood plasma samples were analyzed after protein precipitation with ACN.

[3] = Pharmacokinetic evaluation on mice, intragastric (PO) administration (Test Example 6); format: in vivo; settings: PO 15 mg/kg, male CD-1 mice
Experimental: as §1, §2, §3, §4, §5

[4] = system: A549 cells with Kras G12S mutation; test: Cell proliferation inhibition experiment, 3D spheroid, CellTiter-Glo (Test Example 1); format: cell-based, human; settings: 5 days
Outline: (§6)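 NCI-H358 (800 cells/well) and A549 (400 cells/well) grown overnight as 3D spheroids in 2% FBS medium, then exposed to compound dilution series (3.16-fold, 0.1% DMSO) for 5 days. CellTiter-Glo luminescence read; inhibition relative to DMSO and blank, IC50 by four-parameter fit.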

[5] = system: NCI-H358 cells with Kras G12C mutation; test: as above; format: cell-based, human; settings: 5 days
Outline: as §6

[6] = system: phosphorylated ERK in MIA PaCa2 cells with Kras G12C mutation; test: p-ERK HTRF assay for cells (Test Example 2); format: cell-based, human; settings: MIA PaCa2 cells, 2 hours with compound, read-out: p-ERK IC50
Outline: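 MIA PaCa2 cells (2.5E4/well, seeded overnight) treated 2 h with compound in a 3.16-fold series at 0.1% DMSO. Cells lysed 30 min; p-ERK read by HTRF after 4 h antibody incubation. Inhibition relative to DMSO and blank; IC50 by four-parameter fit.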

[7] = system: MIA PaCa-2 cells with Kras G12C mutation; test: Cell proliferation inhibition experiment, 3D spheroid, CellTiter-Glo (Test Example 3); format: cell-based, human; settings: 5 days, read-out: MIA-PaCa2 IC50
Outline: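 MIA PaCa-2 spheroids (200 cells/well) were formed overnight, then exposed for 5 days to compounds in 3.16-fold dilutions at 0.1% DMSO. Viability was read by CellTiter-Glo luminescence, and inhibition was normalised to DMSO control and medium blank. IC50 came from a four-parameter fit.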

KRas G12C = KRas G12C (Homo sapiens (Human), UniProt P01116, G12C); test: Nucleotide exchange assay (NEA)-HTRF, SOS1 catalyzed displacement of GDP by GTP (Test Example 4); format: biochemical
Experimental: The effects of compounds on SOS1 catalyzed displacement of GDP by GTP on KRas proteins was examined by homogeneous time-resolved fluorescence (HTRF). 30 μM 6×his labeled KRas G12C recombinant protein and 80 μM fluorochrome DY647 labeled GDP were co-incubated in a labeling buffer (1 mM DTT, 7.5 mM EDTA, 25 mM Tris-HCl, 45 mM NaCl) at 20° C. away from light for 2 hours. Protein quantification was performed after purification on the NAP-5 column to determine the concentration of KRas G12C-GDP.
1000× stock solutions of compounds at a concentration gradient of 3.16 were prepared by using DMSO, and diluted 250 times by a reaction buffer (40 mM N-2-hydroxyethylpiperazine-N-2-ethane sulfonic acid (HEPES), 10 mM MgCl2, 1 mM DTT, 0.002% Triton X-100) into 4× stock solutions of compounds. KRas G12C-GDP/Tb working solution (40 nM KRas G12C-GDP, 1×anti-his Tb) and SOS1/GTP working solution (0.2 μM SOS1, 200 μM GTP) were prepared by using the reaction buffer.
5 μl of 4×stock solution of a compound and 10 μl of KRas G12C-GDP/T working solution were added to each well of 96-well plate with white unclear bottom, and 5 μl of reaction buffer was added to the well of control group in stead of the 4×stock solution of a compound. After incubation at 20° C. away from light for 15 minutes, 5 μl of SOS1/GTP working solution was added and incubated at 20° C. away from light for 2 hours, and then a value of fluorescence intensity was read (excitation wavelength: 320 nm, and emission wavelengths: 615 nm and 665 nm). Besides, group TO was established with 10 μl of the reaction buffer and 10 μl of the KRas G12C-GDP/Tb working solution, and the value of fluorescence intensity was directly read. A relative light unit (RLU) was calculated by the following equation: RLU=(665 nm signal/615 nm signal)×10^4; and the inhibition rate (IR) of the compound was calculated by the following equation: IR (%)=(RLUcompound−RLUcontrol)/(RLUT0−RLUcontrol)×100%. The value of IC50 was calculated by fitting a gradiently diluted concentration of the compound and the corresponding cell proliferation inhibition rate using a four-parameter method.

[8] = Homo sapiens, MIA PaCa-2, 120 h

KRas G12C, sequence (P01116-2 other isoform, or with tags, fused parts or gaps G12C): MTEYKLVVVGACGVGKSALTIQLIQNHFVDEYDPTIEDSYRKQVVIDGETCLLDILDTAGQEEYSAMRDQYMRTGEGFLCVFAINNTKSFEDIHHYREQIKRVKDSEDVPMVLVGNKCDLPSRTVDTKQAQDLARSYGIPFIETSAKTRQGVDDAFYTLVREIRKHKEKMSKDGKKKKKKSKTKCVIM

| SMILES | IC50 ([4]; Homo sapiens, A549, 120 h) [nM] | IC50 ([6]; Homo sapiens, MIA PaCa-2, 2 h) [nM] | IC50 [7, 8] [nM] | IC50 (KRas G12C) [nM] | IC50 [5] [nM] | also measured |
| --- | --- | --- | --- | --- | --- | --- |
| C=CC(=O)N1CCN(c2nc(=O)n(-c3c(C)ccnc3C(C)C)c3nc(-c4c(O)cccc4F)c(F)cc23)[C@@H](C)C1 [AMG 510, reference compound] |  |  |  |  |  | Tumor Volume on Day 14 after Administration ([1]; 1 mg/kg): 314.28 mm^3; TGI ([1]; 1 mg/kg): 82.8%; Tumor Volume on Day 14 after Administration ([1]; 3 mg/kg): 205.35 mm^3; TGI ([1]; 3 mg/kg): 109.1%; Tumor Volume on Day 14 after Administration ([1]; 10 mg/kg): 81.72 mm^3; TGI ([1]; 10 mg/kg): 138.9%; Cl (clearance rate) [2]: 73.2 mL/min/kg; T1/2 (half-life) [2]: 19.1 min; Vd (volume of distribution) [2]: 1.15 L/kg; F (bioavailability) [3]: 36.10%; Cmax ([3]; plasma): 1221 ng/mL; Tmax ([3]; plasma): 60 min |
| C=CC(=O)N1CCN2c3c(c(=O)n(-c4c(C)ccnc4C(C)C)c4nc(-c5c(O)cccc5F)c(Cl)cc34)NC(=O)[C@H]2C1 [Compound Z24, (4aR)-3-acryloyl-11-chloro-10-(2-fluoro-6-hydroxyphenyl)-8-(2-isopropyl-4-methylpyridin-3-yl)-2,3,4,4a,6,8-hexahydro-1H-pyrazino[1′,2′:4,5]pyrazino[2,3-c][1,8]naphthyridin-5,7-dione] | 28100 | 113 | 9 | 58 |  | IC50 ([5]; Homo sapiens, NCI-H358, 120 h): 3 nM |
| C=CC(=O)N1C[C@@H]2C(=O)Nc3c(c4cc(F)c(-c5c(O)cccc5F)nc4n(-c4c(C)ccnc4C(C)C)c3=O)N2C[C@H]1C [Compound Z35, (2R,4aR)-3-acryloyl-11-fluoro-10-(2-fluoro-6-hydroxyphenyl)-8-(2-isopropyl-4-methylpyridin-3-yl)-2-methyl-2,3,4,4a,6,8-hexahydro-1H-pyrazino[1′, 2′:4]pyrazino[2,3,3-c][1,8,8]naphthyridin-5-dione] | 28200 |  | 15 | 73 | 6 | IC50 [6]: 83 nM |
| C=CC(=O)N1CCN2c3c(c(=O)n(-c4c(C)ccnc4C(C)C)c4nc(-c5c(O)cccc5F)c(Cl)cc34)NC(=O)[C@H]2C1 (single isomer, unassigned) [Compound Z24-2] |  |  | 4 | 38 | 3 | IC50 [4]: 11300 nM; IC50 [6]: 61 nM |
| C=CC(=O)N1CCN2c3c(c(=O)n(-c4c(C)ccnc4C(C)C)c4nc(-c5c(O)cccc5F)c(F)cc34)N(CC)C(=O)[C@H]2C1 [Compound Z30, (4aR)-3-acryloyl-6-ethyl-11-fluoro-10-(2-fluoro-6-hydroxyphenyl)-8-(2-isopropyl-4-methylpyridin-3-yl)-2,3,4,4a,6,8-hexahydro-1H-pyrazino[1′,2′:4,5]pyrazino[2,3-c][1,8]naphthyridin-5,7-dione] | > 30000 | 676 | 140 | 656 | 51 |  |
| C=CC(=O)N1C[C@@H]2C(=O)N(C)c3c(c4cc(F)c(-c5c(O)cccc5F)nc4n(-c4c(C)cnn4C(C)C)c3=O)N2C[C@H]1C (single isomer, unassigned) [Compound Z33-2] | > 30000 | 238 |  | 162 | 34 | IC50 [7]: 48 nM |
| C=CC(=O)N1CCN2c3c(c(=O)n(-c4c(C(C)C)ccnc4C(C)C)c4c(F)c(-c5c(O)cccc5F)c(Cl)cc34)N(C)C(=O)[C@H]2C1 [Compound Z37] | 8570 | 21 | 4 | 20 |  | IC50 ([5]; Homo sapiens, NCI-H358, 120 h): 1 nM |
